# Laboratory results published in US9241497B2, “Method and apparatus for treatment of food products” (The United States of America, as represented by the …, priority 2005, dated 2016).
# Columns and labels:
# Format in all cases: cell-based, Listeria monocytogenes
# L. monocytogenes [1] = assay: Validation studies of initial post-process lethality on hams; conditions: for average decrease in pathogen levels compared to untreated control hams: ca. 7.0 log10 CFU per ham, after 24 h at 4° C.
# Source text: (§1) Bacterial Strains: Using a procedure described previously (Porto, A. C. S., et al., Journal of Food Protection, 65: 308-315 (2002)), approximately equal numbers of each of the following five strains of L. monocytogenes were used as a cocktail in this study: (i) Scott A (serotype 4b, clinical isolate); (ii) H7776 (serotype 4b, frankfurter isolate); (iii) LM-101M (serotype-4b, beef and pork sausage isolate); (iv) F6854 (serotype 1/2a, turkey frankfurter isolate); and (v) MFS-2 (serotype 1/2a, environmental isolate from a pork processing plant). For each experiment isolates were passed twice in brain heart infusion (BHI; Difco Laboratories, Detroit, Mich.) broth at 37° C. so that cells would be in the stationary phase for inoculating hams. Stock cultures were maintained by storage in BHI plus 10% (wt/vol) glycerol in 1.5-ml portions in cryovials and held at −80° C.
# Validation Studies: To validate the initial post-process lethality of ACS and LAE, a fresh batch of the same formulation of hams was obtained from the same commercial manufacturer as described previously. The hams were spot inoculated with 2 mL of the L. monocytogenes cocktail to achieve a target level of ca. 7.0 log10 CFU per ham, transferred to shrink-wrap bags (Cryovac) that were previously sprayed on the inside with 0, 2.5, 4.5, or 6.5 mL of a 1:2 solution of ACS or a 5% solution of LAE, vacuum sealed, submerged in hot (88° C.) water, and placed at 4° C. In each of three trials, three hams were analyzed at each concentration and volume of ACS and LAE tested after 24 h of refrigerated storage.
# (§2) Microbiological Analyses: Surviving L. monocytogenes were enumerated using the USDA/ARS package rinse method (Luchansky J. B., et al., Journal of Food Protection, 65: 567-570 (2002)) and spread-plating 250 uL of the resulting rinse fluid or dilutions thereof onto duplicate modified Oxford agar plates (MOX; Cook, L. V., Isolation and identification of Listeria monocytogenes from red meat, poultry, egg, and environmental samples, Chapter 8, In: USDA/FSIS Microbiology Laboratory Guidebook (3rd ed., Revision 2), Washington, D.C. (1999)) using a sterile cell spreader and incubating for 48 h at 37° C. Listeria numbers were expressed as log10 CFU per ham with each package containing a single ham; the detection limit was 1.48 log10 CFU/ham. Periodically, isolates were retained from randomly selected samples and confirmed as L. monocytogenes following the recommended/standard USDA/FSIS protocol (Cook, 1999).
# L. monocytogenes [2] = assay: Shelf-life studies: outgrowth on hams during refrigerated storage up to 60 days; conditions: for reduction of pathogen levels relative to untreated samples: after 24 h at 4° C.; for levels of L. monocytogenes compared to untreated control hams (statistical analyses): all volumes tested
# Source text: as §1
# Shelf-Life Studies: To evaluate the efficacy of ACS and LAE over the expected refrigerated shelf life of the product, a fresh batch of the same formulation of hams was obtained from the same commercial manufacturer as described previously. For these studies, hams were spot inoculated with 2 mL of the L. monocytogenes cocktail to achieve a target level of either 3.0 or 7.0 log10 CFU per ham. At each inoculation level one portion of the hams was transferred to shrink-wrap bags that were previously sprayed on the inside with 4, 6, or 8 mL of a 1:2 solution of ACS applied using a commercial spraying apparatus (AutoJet Spray System #45570-22-10-120V, Spraying Systems Co., Wheaton, Ill.) and commercial bagging apparatus (Taped Bag Loader #BL189, Cryovac). An otherwise similar portion of the inoculated hams was transferred to shrink-wrap bags that just prior to introduction of the hams were sprayed with 4, 6, or 8 mL of a 5% LAE solution using the commercial spraying and bagging apparatus. Control hams were also spot inoculated with either 3.0 or 7.0 log10 CFU of L. monocytogenes per ham and were transferred to shrink-wrap bags that were not sprayed with either compound. As described previously, hams were vacuum-sealed, submerged in hot (88° C.) water, and stored at 4° C. Hams were analyzed 1, 7, 14, 21, 28, 40, and, 60 days post-inoculation. For each of two trials, three hams were analyzed at each sampling point for both inoculation levels and for both chemicals tested.
# as §2
# L. monocytogenes [3] = assay: Lethality studies: ACS and LAE sprayed into shrink-wrap bags, inoculated hams, 24 h at 4° C.; conditions: ca. 7.0 log10 CFU per ham
# Source text: as §1
# Lethality Studies: To evaluate the lethality of acidic calcium sulfate (ACS; Safe2O-RTE 01, Mionix Corp., Naperville, Ill.) and lauramide arginine ester (LAE; Ethyl-N-dodecanoyl-L-arginate hydrochloride; CAS No. 60372-77-2; Mirenat-N, Vedeqsa, Barcelona, Spain; also known as lauric arginate), “table brown” hams (water, ground ham trims, brine, dextrose, sugar, sodium phosphate, sodium erythorbate, and sodium nitrite; ca. 3 pounds each ham) were processed and vacuum-sealed by a commercial processor (Hatfield Quality Meats, Hatfield, Pa.). The hams were boxed, transported back to the laboratory, and stored at 4° C. for up to 7 days. Each ham was aseptically removed from its original packaging, spot inoculated with 2 mL of the cocktail using a pipette to achieve a target level of ca. 7.0 log10 CFU per ham, and then transferred to a high-performance shrink-wrap bag (B2570T, Cryovac, Duncan, S.C.). Just prior to introducing the hams, the inside of each shrink-wrap bag was sprayed with 0, 2, 4, 6, or 8 mL of either a 1:1 (1 part ACS: 1 part dH2O) or 1:2 (1 part ACS:2 parts dH2O) solution of ACS or a 5% (5 parts LAE:95 parts dH2O) or 10% (10 parts LAE:90 parts dH2O) solution of LAE. The antimicrobials for these experiments were introduced via a 24-ounce plastic spray bottle (Koch Supplies, Kansas City, Mo.). Each bag was then vacuum sealed to 950 mBar using a Multivac A300/16 vacuum-packaging unit (Sepp Haggemüller K G, Wolfertschwenden, Germany), submerged in hot (88° C.) water for approximately 5 seconds to shrink the bag, and transferred to a 4° C. incubator and held for 24 h. In a single trial, three hams were analyzed for each concentration and volume of ACS and LAE tested after 24 h of refrigerated storage.
# as §2, with “Periodically, isolates were retained from randomly selected samples and confirmed as L. monocytogenes following the recommended/standard USDA/FSIS protocol (Cook, 1999).” left out
smiles,measurement,setting,value
"CCCCCCCCCCCC(=O)N[C@@H](CCCNC(=N)N)C(=O)OCC.Cl [LAE, Ethyl-N-dodecanoyl-L-arginate hydrochloride]",average decrease in pathogen levels compared to untreated control hams,L. monocytogenes [1]; 2.5 mL of 5% solution of LAE,ca. 4.6 log10 CFU/ham
same,average decrease in pathogen levels compared to untreated control hams,L. monocytogenes [1]; 4.5 mL of 5% solution of LAE,~5.9 log10 CFU/ham
same,reduction of levels of L. monocytogenes on the surface of hams (conclusion),"L. monocytogenes [1]; 5% solution of LAE, within 24 h at 4° C.",at least 5.0 log10 CFU/ham
same,average decrease in pathogen levels compared to untreated control hams,L. monocytogenes [1]; 6.5 mL of 5% solution of LAE,~6.1 log10 CFU/ham
same,levels of the pathogen within 24 h,"L. monocytogenes [2]; 4, 6, and 8 mL of 5% solution of LAE, inoculum ca. 3.0 log10 CFU/ham, 4° C., detection limit 1.48 log10 CFU/ham",below the limit of detection
same,increase of L. monocytogenes levels after 60 days,"L. monocytogenes [2]; 4 and 6 mL of 5% LAE solution, inoculum ca. 3.0 log10 CFU/ham, 4° C.",ca. 2.0 log10 CFU/ham
same,increase of pathogen levels thereafter (after 24 h) within 60 days,"L. monocytogenes [2]; 4 mL of 5% solution of LAE, inoculum ca. 7.0 log10 CFU/ham, 4° C.",ca. 4.6 log10 CFU/ham
same,reduction of pathogen levels relative to untreated samples,"L. monocytogenes [2]; 4 mL of 5% solution of LAE, inoculum ca. 7.0 log10 CFU/ham",~5.1 log10 CFU/ham
same,increase of pathogen levels thereafter (after 24 h) within 60 days,"L. monocytogenes [2]; 6 mL of 5% solution of LAE, inoculum ca. 7.0 log10 CFU/ham, 4° C.",~3.0 log10 CFU/ham
same,reduction of pathogen levels relative to untreated samples,"L. monocytogenes [2]; 6 mL of 5% solution of LAE, inoculum ca. 7.0 log10 CFU/ham",~5.4 log10 CFU/ham
same,levels of L. monocytogenes after 60 days,"L. monocytogenes [2]; 8 mL of 5% LAE solution, inoculum ca. 3.0 log10 CFU/ham, 4° C., detection limit 1.48 log10 CFU/ham",remained below the detection limit
same,increase of pathogen levels thereafter (after 24 h) within 60 days,"L. monocytogenes [2]; 8 mL of 5% solution of LAE, inoculum ca. 7.0 log10 CFU/ham, 4° C.",~2.0 log10 CFU/ham
same,reduction of pathogen levels relative to untreated samples,"L. monocytogenes [2]; 8 mL of 5% solution of LAE, inoculum ca. 7.0 log10 CFU/ham",~5.5 log10 CFU/ham
same,duration of control of further outgrowth of L. monocytogenes,"L. monocytogenes [2]; initial inoculum of ca. 7.0 log10 CFU/ham, refrigerated storage",≥ 28 days
same,levels of L. monocytogenes compared to untreated control hams (statistical analyses),"L. monocytogenes [2]; inoculum ca. 3.0 log10 CFU/ham, day 1 through day 40",appreciably lower
same,levels of L. monocytogenes compared to untreated control hams (statistical analyses),"L. monocytogenes [2]; inoculum ca. 7.0 log10 CFU/ham, day 1 through day 60",appreciably lower
same,decrease in L. monocytogenes levels,L. monocytogenes [3]; 2 mL of 5% solution of LAE,ca. 3.3 log10 CFU/ham
same,decrease in L. monocytogenes levels,L. monocytogenes [3]; 4 mL of 5% solution of LAE,ca. 6.5 log10 CFU/ham
same,decrease in L. monocytogenes levels,L. monocytogenes [3]; 6 mL of 5% solution of LAE,~5.6 log10 CFU/ham
same,decrease in L. monocytogenes levels,L. monocytogenes [3]; 8 mL of 5% solution of LAE,ca. 6.5 log10 CFU/ham
same,decrease in pathogen levels,"L. monocytogenes [3]; 10% solution of LAE, all 4 application volumes (2, 4, 6, 8 mL)",ca. 6.5 log10 CFU/ham
